This note sets out measurements from article PMC6496959 (Journal of medicinal chemistry, 2018).

One data set deals with MDCK cells. The following applies: minimal change in cell morphology after 48 h incubation.
In data set [1] the test system is A/Guangzhou/GIRD/07/2009 (H1N1). The data set is described as follows: microbe, parasite or virus in culture. The following applies: Influenza A virus, H1N1, MDCK, 48 h, read-out: Activity (EC50, μM). Format: cell-based.
Data set [2] has as its system influenza virus (A/PR/8/34).

SMILES strings stand for the structures. Where only a bound is given, the exact number is not on record here.

Consider `NC12CC3CC(CC(C3)C1)C2` [Amantadine, amantadine, reference compound], for which the “MCC (minimum cytotoxic concentration)” value in the data set with MDCK cells was above 100 µM. One may read the EC50 as the midpoint of the concentration-response curve. With `C[C@H]1[C@H](NCc2cncnc2)C[C@H]2C[C@@H]1C2(C)C` [Compound 1], the “MCC (minimum cytotoxic concentration)” value in the data set with MDCK cells was above 100 µM. Further, the EC50 in data set [1] was above 50 µM. The corresponding values for `C[C@H]1[C@H](NCc2cnccn2)C[C@H]2C[C@@H]1C2(C)C` [Compound 2] are above 100 µM and above 50 µM. For `Cc1n[nH]cc1CN[C@@H]1C[C@H]2C[C@@H]([C@H]1C)C2(C)C` [Compound 3], in the data set with MDCK cells, the “MCC (minimum cytotoxic concentration)” value is above 100 µM. Also, in data set [1], the concentration for a half-maximal effect (EC50) was above 50 µM. As to `C[C@H]1[C@H](NCc2ccoc2)C[C@H]2C[C@@H]1C2(C)C` [Compound 4], in the data set on MDCK cells, the “MCC (minimum cytotoxic concentration)” value was above 100 µM. `C[C@H]1[C@H](NCc2ccco2)C[C@H]2C[C@@H]1C2(C)C` [Compound 5]: the “MCC (minimum cytotoxic concentration)” value in the data set on MDCK cells stood at 50 µM. In addition, the EC50 in data set [1] was above 50 µM. Consider `C[C@H]1[C@H](NCc2ccsc2)C[C@H]2C[C@@H]1C2(C)C` [Compound 6], for which the “MCC (minimum cytotoxic concentration)” value in the data set on MDCK cells amounted to 50 µM. As for `C[C@H]1[C@H](NCc2cccs2)C[C@H]2C[C@@H]1C2(C)C` [Compound 7], the “MCC (minimum cytotoxic concentration)” value in the data set on MDCK cells was 25 µM. As for `C[C@H]1[C@H](NCc2nccs2)C[C@H]2C[C@@H]1C2(C)C` [Compound 8], the “MCC (minimum cytotoxic concentration)” value with MDCK cells was above 100 µM. Moreover, the EC50 in data set [1] was above 50 µM. Turning to `C[C@H]1[C@H](NCc2cncs2)C[C@H]2C[C@@H]1C2(C)C` [Compound 9], the “MCC (minimum cytotoxic concentration)” value in the data set with MDCK cells is above 100 µM. The concentration for a half-maximal effect (EC50) in data set [1] was above 50 µM. Consider `Cc1csc(CN[C@@H]2C[C@H]3C[C@@H]([C@H]2C)C3(C)C)n1` [Compound 10], for which the “MCC (minimum cytotoxic concentration)” value with MDCK cells was above 100 µM. For the molecule `Cc1ccsc1CN[C@@H]1C[C@H]2C[C@@H]([C@H]1C)C2(C)C` [Compound 11], the “MCC (minimum cytotoxic concentration)” value with MDCK cells stood at 10 µM. In data set [1], the EC50 was above 0.78 µM. The corresponding values for `CCc1ccsc1CN[C@@H]1C[C@H]2C[C@@H]([C@H]1C)C2(C)C` [Compound 12] are 25 µM and above 0.78 µM. For `C[C@H]1[C@H](NCc2sccc2Br)C[C@H]2C[C@@H]1C2(C)C` [Compound 13], the “MCC (minimum cytotoxic concentration)” value in the data set on MDCK cells was 50 µM. The EC50 in data set [1] is above 0.78 µM. As to `CCCc1ccsc1CN[C@@H]1C[C@H]2C[C@@H]([C@H]1C)C2(C)C` [Compound 14], in the data set on MDCK cells, the “MCC (minimum cytotoxic concentration)” value turned out to be 50 µM. The EC50 in data set [1] was above 0.78 µM. As for `CCCCc1ccsc1CN[C@@H]1C[C@H]2C[C@@H]([C@H]1C)C2(C)C` [Compound 15], the “MCC (minimum cytotoxic concentration)” value with MDCK cells stood at 25 µM. In the case of `CCOc1ccsc1CN[C@@H]1C[C@H]2C[C@@H]([C@H]1C)C2(C)C` [Compound 16], the “MCC (minimum cytotoxic concentration)” value with MDCK cells was determined as 50 µM. Further, in data set [1], the EC50 was above 0.78 µM. As to `C=Cc1ccsc1CN[C@@H]1C[C@H]2C[C@@H]([C@H]1C)C2(C)C` [Compound 17], the “MCC (minimum cytotoxic concentration)” value with MDCK cells is 50 µM. Regarding `C[C@H]1[C@H](NCc2sccc2C2CC2)C[C@H]2C[C@@H]1C2(C)C` [Compound 18], in data set [2], the “inhibition of virus-induced aggregation of chicken erythrocytes” value is “did not inhibit”.

Turning to `C[C@H]1[C@H](NCc2sccc2C2CCCC2)C[C@H]2C[C@@H]1C2(C)C` [Compound 19], in the data set on MDCK cells, the “MCC (minimum cytotoxic concentration)” value was 12.5 µM. With `C[C@H]1[C@H](NCc2sccc2C2CCCCC2)C[C@H]2C[C@@H]1C2(C)C` [Compound 20], in the data set with MDCK cells, the “MCC (minimum cytotoxic concentration)” value came out at 1.56 µM. For the same molecule, the half-maximal effective concentration (EC50) in data set [1] was above 0.78 µM. Regarding `C[C@H]1[C@H](NCc2sccc2-c2ccsc2)C[C@H]2C[C@@H]1C2(C)C` [Compound 21], the “MCC (minimum cytotoxic concentration)” value in the data set with MDCK cells came out at 12.5 µM. In addition, the 50% effective concentration (EC50) in data set [1] is above 0.78 µM. Turning to `C[C@H]1[C@H](NCc2sccc2-c2ccccc2)C[C@H]2C[C@@H]1C2(C)C` [Compound 22], the “MCC (minimum cytotoxic concentration)” value with MDCK cells came out at 12.5 µM. The EC50 in data set [1] is above 0.78 µM. With `C[C@H]1[C@H](NCc2cc(Br)cs2)C[C@H]2C[C@@H]1C2(C)C` [Compound 23], the “MCC (minimum cytotoxic concentration)” value in the data set with MDCK cells amounted to 6.25 µM. As to `Cc1csc(CN[C@@H]2C[C@H]3C[C@@H]([C@H]2C)C3(C)C)c1` [Compound 24], the “MCC (minimum cytotoxic concentration)” value with MDCK cells is 12.5 µM. Take `CCc1csc(CN[C@@H]2C[C@H]3C[C@@H]([C@H]2C)C3(C)C)c1` [Compound 25]: in the data set on MDCK cells, the “MCC (minimum cytotoxic concentration)” value came to 25 µM. Besides, the EC50 in data set [1] is above 0.78 µM. For `CCCc1csc(CN[C@@H]2C[C@H]3C[C@@H]([C@H]2C)C3(C)C)c1` [Compound 26], the “MCC (minimum cytotoxic concentration)” value in the data set with MDCK cells came out at 12.5 µM. Also, the EC50 in data set [1] was above 0.78 µM.

As to `CCCCc1csc(CN[C@@H]2C[C@H]3C[C@@H]([C@H]2C)C3(C)C)c1` [Compound 27], in the data set on MDCK cells, the “MCC (minimum cytotoxic concentration)” value was found to be 12.5 µM.

In the case of `C=Cc1csc(CN[C@@H]2C[C@H]3C[C@@H]([C@H]2C)C3(C)C)c1` [Compound 28], the “MCC (minimum cytotoxic concentration)” value with MDCK cells was determined as 6.25 µM. Also, the half-maximal effective concentration (EC50) in data set [1] is above 0.78 µM. The corresponding values for `C=C(C)c1csc(CN[C@@H]2C[C@H]3C[C@@H]([C@H]2C)C3(C)C)c1` [Compound 29] are 25 µM and above 0.78 µM. Regarding `C[C@H]1[C@H](NCc2cc(C3CC3)cs2)C[C@H]2C[C@@H]1C2(C)C` [Compound 30], the “MCC (minimum cytotoxic concentration)” value in the data set with MDCK cells amounted to 25 µM. Take `C[C@H]1[C@H](NCc2cc(C3CCCC3)cs2)C[C@H]2C[C@@H]1C2(C)C` [Compound 31]: the “MCC (minimum cytotoxic concentration)” value in the data set on MDCK cells turned out to be 1.56 µM. Moreover, in data set [1], the EC50 was above 0.78 µM. Regarding `C[C@H]1[C@H](NCc2cc(C3CCCCC3)cs2)C[C@H]2C[C@@H]1C2(C)C` [Compound 32], in the data set on MDCK cells, the “MCC (minimum cytotoxic concentration)” value stood at 0.78 µM. For the same molecule, the EC50 in data set [1] was above 0.78 µM. As for `C[C@H]1[C@H](NCc2cc(-c3ccsc3)cs2)C[C@H]2C[C@@H]1C2(C)C` [Compound 33], the “MCC (minimum cytotoxic concentration)” value in the data set with MDCK cells was 25 µM. In data set [1], the EC50 is above 0.78 µM. For `C[C@H]1[C@H](NCc2cc(-c3ccccc3)cs2)C[C@H]2C[C@@H]1C2(C)C` [Compound 34], in the data set with MDCK cells, the “MCC (minimum cytotoxic concentration)” value is 5 µM. For the same molecule, in data set [1], the EC50 is above 0.78 µM.

For `C[C@H]1[C@H](NCc2ccc(Cl)s2)C[C@H]2C[C@@H]1C2(C)C` [Compound 35], the “MCC (minimum cytotoxic concentration)” value with MDCK cells was 25 µM. Further, the EC50 in data set [1] is above 0.78 µM.

Turning to `Cc1ccc(CN[C@@H]2C[C@H]3C[C@@H]([C@H]2C)C3(C)C)s1` [Compound 36], in the data set on MDCK cells, the “MCC (minimum cytotoxic concentration)” value is 0.78 µM. Also, in data set [1], the EC50 was above 0.78 µM.

On to `C[C@H]1[C@H](NCc2ccc(Br)s2)C[C@H]2C[C@@H]1C2(C)C` [Compound 37], for which the “MCC (minimum cytotoxic concentration)” value in the data set with MDCK cells was 43 µM. Moreover, in data set [1], the 50% effective concentration (EC50) was above 0.78 µM. The corresponding values for `CCc1ccc(CN[C@@H]2C[C@H]3C[C@@H]([C@H]2C)C3(C)C)s1` [Compound 38] are 1.56 µM and above 0.78 µM. The corresponding values for `C[C@H]1[C@H](NCc2ccc(C(C)(C)C)s2)C[C@H]2C[C@@H]1C2(C)C` [Compound 39] are 0.78 µM and above 0.78 µM. The corresponding values for `CSc1ccc(CN[C@@H]2C[C@H]3C[C@@H]([C@H]2C)C3(C)C)s1` [Compound 40] are 25 µM and above 0.78 µM. Take `C[C@H]1[C@H](NCc2ccc(-c3ccc(Br)s3)s2)C[C@H]2C[C@@H]1C2(C)C` [Compound 41]: in the data set with MDCK cells, the “MCC (minimum cytotoxic concentration)” value worked out at 0.78 µM. In addition, in data set [1], the EC50 was above 0.78 µM.
